Measurements: ChEMBL document CHEMBL6083269, “Design, synthesis, in vitro and in vivo trypanosomaticidal efficacy of novel 5-nitroindolylazines” (Eur J Med Chem, 2024)
Active and inactive are the calls of the source. No cut-off for these calls is given here.

How the values were obtained:
Trypanosoma cruzi [1] = assay: Antitrypanosomal activity against Trypanosoma cruzi Tulahuen C4 strain trypomastigotes assessed as growth inhibition at 20 uM incubated for 48 hrs by resazurin dye based assay; type: functional; parameters: scale not given: the % may be the effect or the level left
Trypanosoma cruzi [2] = assay: Antitrypanosomal activity against Trypanosoma cruzi Tulahuen C4 strain amastigotes infected in Vero cells incubated for 72 hrs by beta-galactosidase based assay; type: functional, organism-based
[3] = Selectivity index, ratio of CC50 for MDBK to IC50 for Trypanosoma brucei brucei GUTat3.1; type: toxicity, cell-based; conditions: cattle, MDBK cells; read-out: Ratio CC50/IC50
[4] = Selectivity index, ratio of IC50 for human THP-1 cells to IC50 for leishmanicidal activity against Leishmania major NIH-S (MHOM/SN/74/Seidman); type: toxicity, cell-based; conditions: read-out: Ratio IC50
Leishmania major [5] = assay: Antileishmanial activity against Leishmania major IR-173 (MHO-M/IR/-173) promastigote incubated for 48 hrs by resazurin dye based plate reader assay; type: functional, organism-based
Trypanosoma congolense [6] = assay: Trypanocidal activity against Trypanosoma congolense IL3000 incubated for 72 hrs by CellTiter-Glo reagent based […] analysis; type: functional, organism-based; conditions: IL3000, 72 h
[7] = Selectivity index, ratio of IC50 for african green monkey Vero cells to IC50 for static antileishmanial activity against Leishmania donovani 9515 (MHOM/IN/95/9151) amastigote; type: toxicity, cell-based; conditions: read-out: Ratio IC50
[8] = Selectivity index, ratio of CC50 for MDBK to IC50 for Trypanosoma congolense IL3000; type: toxicity, cell-based; conditions: cattle, MDBK cells; read-out: Ratio CC50/IC50
[9] = Selectivity index, ratio of IC50 for african green monkey Vero cells to IC50 for leishmanicidal activity against Leishmania major NIH-S (MHOM/SN/74/Seidman) amastigote; type: toxicity, cell-based; conditions: read-out: Ratio IC50
Trypanosoma congolense [10] = assay: Antitrypanosomal activity against Trypanosoma congolense IL3000 infected in BALB/c mouse assessed as animal survival at 100 mg/kg, po or 10 mg/kg, ip administered for 7 consecutive days starting from 6 days post infection and measured after 13 days post infection; type: functional, organism-based; conditions: time 7.0 day
[11] = Selectivity index, ratio of CC50 for MDBK to IC50 for Trypanosoma brucei rhodesiense IL1501; type: toxicity, cell-based; conditions: cattle, MDBK cells; read-out: Ratio CC50/IC50
Leishmania donovani [12] = assay: Antileishmanial activity against Leishmania donovani 9515 (MHOM/IN/95/9151) amastigote infected in THP-1 cells assessed as inhibition of parasite growth incubated for 72 hrs by resazurin dye based plate reader assay; type: functional, organism-based; conditions: THP-1, 72 h
[13] = Selectivity index, ratio of IC50 for human THP-1 cells to IC50 for static antileishmanial activity against Leishmania donovani 9515 (MHOM/IN/95/9151) amastigote; type: toxicity, cell-based; conditions: read-out: Ratio IC50
[14] = Selectivity index, ratio of CC50 for MDBK to IC50 for Trypanosoma evansi Tansui; type: toxicity, cell-based; conditions: cattle, MDBK cells; read-out: Ratio CC50/IC50
[15] = Cytotoxicity against green monkey Vero cells incubated for 48 hrs by resazurin dye based assay; type: toxicity, cell-based; conditions: African green monkey (Chlorocebus sabaeus)
[16] = Selectivity index, ratio of IC50 for human THP-1 cells to IC50 for leishmanicidal activity against Leishmania donovani 9515 (MHOM/IN/95/9151) amastigote; type: toxicity, cell-based; conditions: read-out: Ratio IC50
[17] = Selectivity index, ratio of IC50 for african green monkey Vero cells to IC50 for leishmanicidal activity against Leishmania donovani 9515 (MHOM/IN/95/9151) amastigote; type: toxicity, cell-based; conditions: read-out: Ratio IC50
[18] = Selectivity index, ratio of IC50 for human THP-1 cells to IC50 for static antileishmanial activity against Leishmania major NIH-S (MHOM/SN/74/Seidman) amastigote; type: toxicity, cell-based; conditions: read-out: Ratio IC50
[19] = tested on: Trypanosoma brucei brucei; assay: Trypanocidal activity against Trypanosoma brucei brucei GUTat3.1 incubated for 72 hrs by CellTiter-Glo reagent based […] analysis; type: functional, organism-based; conditions: GUTat3.1, 72 h
[20] = Selectivity index, ratio of CC50 for MDBK to IC50 for Trypanosoma equiperdum IVM-t1; type: toxicity, cell-based; conditions: cattle, MDBK cells; read-out: Ratio CC50/IC50
[21] = Selectivity index, ratio of CC50 for MDBK to IC50 for Trypanosoma brucei gambiense IL1922; type: toxicity, cell-based; conditions: cattle, MDBK cells; read-out: Ratio CC50/IC50
[22] = Selectivity index, ratio of IC50 for african green monkey Vero cells to IC50 for Leishmania major IR-173 (MHO-M/IR/-173) promastigote; type: toxicity, cell-based; conditions: read-out: Ratio IC50
[23] = Selectivity index, ratio of IC50 for african green monkey Vero cells to IC50 for Trypanosoma cruzi Tulahuen C4 strain; type: toxicity, cell-based; conditions: read-out: Ratio IC50
[24] = Selectivity index, ratio of IC50 for human THP-1 cells to IC50 for Trypanosoma cruzi Tulahuen C4 strain; type: toxicity, cell-based; conditions: read-out: Ratio IC50
Leishmania major [25] = assay: Leishmanicidal activity against Leishmania major NIH-S (MHOM/SN/74/Seidman) amastigote incubated for 48 hrs by resazurin dye based plate reader assay; type: functional, organism-based
[26] = Cytotoxicity against human […]-differentiated THP-1 cells incubated for 72 hrs by resazurin dye based assay; type: toxicity, cell-based
Trypanosoma evansi = assay: Trypanocidal activity against Trypanosoma evansi Tansui incubated for 72 hrs by CellTiter-Glo reagent based […] analysis; type: functional, organism-based
[27] = tested on: Trypanosoma brucei gambiense; assay: Trypanocidal activity against Trypanosoma brucei gambiense IL1922 incubated for 72 hrs by CellTiter-Glo reagent based […] analysis; type: functional, organism-based; conditions: IL1922, 72 h
Leishmania donovani [28] = assay: Antileishmanial activity against Leishmania donovani 9515 (MHOM/IN/95/9151) promastigote incubated for 48 hrs by resazurin dye based plate reader assay; type: functional, organism-based
Trypanosoma equiperdum = assay: Trypanocidal activity against Trypanosoma equiperdum IVM-t1 incubated for 72 hrs by CellTiter-Glo reagent based […] analysis; type: functional, organism-based; conditions: IVM-t1, 72 h
[29] = Selectivity index, ratio of IC50 for human THP-1 cells to IC50 for Leishmania major IR-173 (MHO-M/IR/-173) promastigote; type: toxicity, cell-based; conditions: read-out: Ratio IC50
Leishmania donovani [30] = assay: Leishmanicidal activity against Leishmania donovani 9515 (MHOM/IN/95/9151) amastigote infected in THP-1 cells incubated for 72 hrs by resazurin dye based plate reader assay; type: functional, organism-based; conditions: THP-1, 72 h
Leishmania major [31] = assay: Antileishmanial activity against Leishmania major NIH-S (MHOM/SN/74/Seidman) amastigote infected in THP-1 cells assessed as inhibition of parasite growth incubated for 72 hrs by resazurin dye based plate reader assay; type: functional, organism-based; conditions: THP-1, 72 h
[32] = Selectivity index, ratio of IC50 for human THP-1 cells to IC50 for Leishmania donovani 9515 (MHOM/IN/95/9151) promastigote; type: toxicity, cell-based; conditions: read-out: Ratio IC50
[33] = Selectivity index, ratio of IC50 for african green monkey Vero cells to IC50 for Leishmania donovani 9515 (MHOM/IN/95/9151) promastigote; type: toxicity, cell-based; conditions: read-out: Ratio IC50
[34] = tested on: Trypanosoma brucei rhodesiense; assay: Trypanocidal activity against Trypanosoma brucei rhodesiense IL1501 incubated for 72 hrs by CellTiter-Glo reagent based […] analysis; type: functional, organism-based; conditions: IL1501, 72 h
[35] = Selectivity index, ratio of IC50 for african green monkey Vero cells to IC50 for static antileishmanial activity against Leishmania major NIH-S (MHOM/SN/74/Seidman) amastigote; type: toxicity, cell-based; conditions: read-out: Ratio IC50
[36] = Cytotoxicity against MDBK cells incubated for 72 hrs by CCK8 assay; type: toxicity, cell-based, Bos taurus; conditions: cattle; for CC50 at 72 h: MDBK cells
Trypanosoma congolense [37] = assay: Antitrypanosomal activity against Trypanosoma congolense IL3000 infected in BALB/c mouse assessed as increase in animal survival time at 100 mg/kg, po or 10 mg/kg, ip administered for 7 consecutive days starting from 6 days post infection (reference value: 9 day); type: functional; conditions: time 7 day

Structure (SMILES)	Activity (Trypanosoma cruzi [1]) [%]	IC50 (Trypanosoma cruzi [2]) [µM]	selectivity ratio [3]	IC50 (Leishmania major [5]) [µM]	IC50 (Trypanosoma congolense [6]) [µM]	selectivity ratio [7]	selectivity ratio [8]	IC50 (Leishmania donovani [12]) [µM]	selectivity ratio [13]	IC50 at 48 h [15] [µM]	selectivity ratio [16]	selectivity ratio [17]	IC50 [19] [µM]	IC50 at 72 h [26] [µM]	IC50 (Trypanosoma evansi) [µM]	IC50 [27] [µM]	IC50 (Leishmania donovani [28]) [µM]	IC50 (Trypanosoma equiperdum) [µM]	IC50 (Leishmania donovani [30]) [µM]	IC50 [34] [µM]	other results
O=C(Cn1ccnc1[N+](=O)[O-])NCc1ccccc1 [BENZNIDAZOLE]	100	2.7	–	–	–	–	–	–	–	–	–	–	–	–	–	–	–	–	–	–	–
C#CCn1cc(/C=N\N=C\c2ccc([N+](=O)[O-])o2)c2cc([N+](=O)[O-])ccc21	22	1.21	> 222	0.08	0.08	2	> 3280	3.27	20	8.07	20	2	1.24	66.3	1.96	0.68	0.2	1.88	3.29	0.75	selectivity ratio [4]: 47; selectivity ratio [9]: 6; Activity (Trypanosoma congolense [10]): inactive; selectivity ratio [11]: > 364; selectivity ratio [14]: > 140; selectivity ratio [18]: 60; selectivity ratio [20]: > 146; selectivity ratio [21]: > 405; selectivity ratio [22]: 106; selectivity ratio [23]: 6; selectivity ratio [24]: 55; IC50 (Leishmania major [25]): 1.41 µM; selectivity ratio [29]: 829; IC50 (Leishmania major [31]): 1.09 µM; selectivity ratio [32]: 332; selectivity ratio [33]: 40; selectivity ratio [35]: 7; CC50 at 72 h [36]: > 274 µM; Survival (Trypanosoma congolense [37]): 9.5 days
C#CCn1cc(/C=N\N=C\c2ccc([N+](=O)[O-])s2)c2cc([N+](=O)[O-])ccc21	59	0.82	> 790	> 10	0.09	22	> 2950	2.34	42	51.1	> 28	15	0.33	> 100	0.3	0.25	1.95	0.34	3.51	0.35	selectivity ratio [4]: 58; selectivity ratio [9]: 25; Activity (Trypanosoma congolense [10]): inactive; selectivity ratio [11]: > 753; selectivity ratio [14]: > 864; selectivity ratio [18]: 278; selectivity ratio [20]: > 780; selectivity ratio [21]: > 1070; selectivity ratio [23]: 62; selectivity ratio [24]: 121; IC50 (Leishmania major [25]): 1.74 µM; IC50 (Leishmania major [31]): 0.36 µM; selectivity ratio [32]: 51; selectivity ratio [33]: 26; selectivity ratio [35]: 142; CC50 at 72 h [36]: > 263 µM; Survival (Trypanosoma congolense [37]): 10.5 days
C#CCn1cc(\C=N/N=C/C=C/c2ccccc2)c2cc([N+](=O)[O-])ccc21	–	–	–	8.08	9.4	75	> 29.9	0.34	75	24.5	52	37	> 70.2	35.8	> 70.2	> 70.2	> 10	> 70.2	0.69	> 70.2	selectivity ratio [22]: 3; IC50 (Leishmania major [25]): > 10 µM; selectivity ratio [29]: 4; IC50 (Leishmania major [31]): > 10 µM; CC50 at 72 h [36]: 9.2 µM
C#CCn1cc(/C=N/N=C\C=C(C)C)c2cc([N+](=O)[O-])ccc21	–	–	1.82	–	28.3	152	2.41	0.53	175	80.3	90	78	37.4	92.6	39.6	33.4	10	27	1.03	34.7	selectivity ratio [11]: 1.96; selectivity ratio [14]: 1.72; selectivity ratio [20]: 2.53; selectivity ratio [21]: 2.04; selectivity ratio [32]: 9; selectivity ratio [33]: 8; CC50 ([36]; mdbk, 72 h): > 325 µM
